Patent publication US20240182481A1 (Tango Therapeutics, Inc., priority 2021, published 2024)
Where two headings read alike, the source gives them in different places.

Experiments:
[1] = system: MDA-MB-436 (BRCA1 mutant) cell line; assay: Viability assay in BRCA1 mutant cell line MDA-MB-436; type: cell-based; conditions: BRCA1 mutant MDA-MB-436, read-out: MDA-MB-436 rel IC50
Source text: (§1) Table 1 also indicates IC50 values in a viability assay for a non-isogenic pair of BRCA1 mutant (column 5—MDA-MB-436) and BRCA1 WT (column 6—HCC1954) cell lines. These values indicate the effect of treatment with compound on cell survival.

[2] = biological target: USP1-UAF1 (Homo sapiens, UniProt O94782); assay: Ubiquitin Rhodamine assay for USP1-UAF1 activity; type: biochemical
Chain of USP1-UAF1 (O94782 whole entry): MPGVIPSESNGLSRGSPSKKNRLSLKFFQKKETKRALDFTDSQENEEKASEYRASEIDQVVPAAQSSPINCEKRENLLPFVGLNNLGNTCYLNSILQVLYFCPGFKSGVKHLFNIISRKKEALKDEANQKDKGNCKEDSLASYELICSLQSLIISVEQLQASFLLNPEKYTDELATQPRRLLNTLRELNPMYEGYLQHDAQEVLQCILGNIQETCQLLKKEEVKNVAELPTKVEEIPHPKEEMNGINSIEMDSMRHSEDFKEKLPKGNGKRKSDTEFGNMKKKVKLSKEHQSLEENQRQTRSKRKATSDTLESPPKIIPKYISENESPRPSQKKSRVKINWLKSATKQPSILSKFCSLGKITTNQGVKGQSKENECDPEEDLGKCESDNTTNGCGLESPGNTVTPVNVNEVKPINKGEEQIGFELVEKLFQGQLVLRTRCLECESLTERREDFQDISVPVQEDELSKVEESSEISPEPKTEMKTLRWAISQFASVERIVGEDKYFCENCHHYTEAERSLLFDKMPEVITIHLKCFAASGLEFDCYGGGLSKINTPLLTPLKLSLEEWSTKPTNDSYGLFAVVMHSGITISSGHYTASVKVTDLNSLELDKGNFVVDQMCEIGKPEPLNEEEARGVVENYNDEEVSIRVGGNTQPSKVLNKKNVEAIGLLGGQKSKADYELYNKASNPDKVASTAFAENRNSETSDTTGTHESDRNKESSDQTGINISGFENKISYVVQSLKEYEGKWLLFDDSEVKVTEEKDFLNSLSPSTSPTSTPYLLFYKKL
Chain of USP1-UAF1 (Q8TAF3 whole entry partner): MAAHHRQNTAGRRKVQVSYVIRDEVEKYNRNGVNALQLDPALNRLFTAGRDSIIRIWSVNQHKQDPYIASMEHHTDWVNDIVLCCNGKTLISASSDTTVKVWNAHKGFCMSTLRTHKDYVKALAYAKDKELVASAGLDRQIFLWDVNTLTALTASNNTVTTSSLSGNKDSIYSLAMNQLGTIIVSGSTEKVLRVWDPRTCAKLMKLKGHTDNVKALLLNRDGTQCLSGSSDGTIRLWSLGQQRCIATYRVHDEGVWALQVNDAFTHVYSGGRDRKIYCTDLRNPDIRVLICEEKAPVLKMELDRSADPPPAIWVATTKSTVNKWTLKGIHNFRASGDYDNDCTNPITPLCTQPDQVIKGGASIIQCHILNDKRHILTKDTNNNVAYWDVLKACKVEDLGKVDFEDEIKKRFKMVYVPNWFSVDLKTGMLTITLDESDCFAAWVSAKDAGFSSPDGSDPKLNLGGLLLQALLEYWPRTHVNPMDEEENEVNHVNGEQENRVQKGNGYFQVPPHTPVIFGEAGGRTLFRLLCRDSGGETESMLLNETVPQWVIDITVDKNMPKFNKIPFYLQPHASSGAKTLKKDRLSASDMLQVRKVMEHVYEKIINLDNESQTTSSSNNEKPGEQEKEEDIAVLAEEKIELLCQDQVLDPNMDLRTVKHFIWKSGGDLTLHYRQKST
Description: Certain compounds of the disclosure were assessed for USP1-UAF1 activity in a Ubiquitin Rhodamine assay as described in Example 135.

[3] = system: monoubiquitinated PCNA; assay: AlphaLISA assay measuring monoubiquitinated PCNA in MDA-MB-436; type: cell-based; conditions: read-out: Alpha LISA IC50
Source text: Table 1 also indicates IC50 values for exemplary compounds in an AlphaLISA assay measuring monoubiquitinated PCNA in a BRCA1 mutant cell line (MDA-MB-436; column 7).

[4] = system: HCC1954 (BRCA1 WT) cell line; assay: Viability assay in BRCA1 WT cell line HCC1954; type: cell-based; conditions: Homo sapiens, read-out: HCC 1954 IC50 rel IC50
Source text: as §1

[5] = Homo sapiens, MDA-MB-436, viability

| Structure (SMILES) | IC50 ([1]; viability) | IC50 [2] | IC50 [3] | IC50 ([3]; Homo sapiens) | IC50 [1, 5] | IC50 [4] |
| --- | --- | --- | --- | --- | --- | --- |
| COc1ncnc(C2CC2)c1-c1ncc2[nH]cc([C@@](C)(O)c3ccc(-c4nc(C(F)(F)F)cn4C)cc3)c2n1 (single isomer, unassigned) [Compound 4] | 100 to 250 nM | 30 to 100 nM | 100 to 250 nM | – | – | – |
| COc1ncnc(C2CC2)c1-c1ncc2[nH]nc(Cc3ccc(-c4nc(C(F)(F)F)cn4C)cc3)c2n1 [Compound 5, 5-(4-cyclopropyl-6-methoxy-pyrimidin-5-yl)-3-[[4-[1-methyl-4-(trifluoromethyl)imidazol-2-yl]phenyl]methyl]-1H-pyrazolo[4,3-d]pyrimidine] | – | < 30 nM | – | < 100 nM | < 100 nM | – |
| COc1ncnc(C2CC2)c1-c1ncc2nn(C)c(Cc3ccc(-c4nc(C(F)(F)F)cn4C)cc3)c2n1 [Compound 24, 5-(4-cyclopropyl-6-methoxy-pyrimidin-5-yl)-2-methyl-3-[[4-[1-methyl-4-(trifluoromethyl)imidazol-2-yl]phenyl]methyl]pyrazolo[4,3-d]pyrimidine] | – | – | – | 100 to 250 nM | 250 to 10000 nM | ≥ 10000 nM |
| CC(C)n1cc(C(F)(F)F)nc1-c1ccc(C(O)c2c[nH]c3cnc(-c4cccnc4OC(F)F)nc23)cc1 (centres unmarked) [Compound 52, [2-[2-(difluoromethoxy)-3-pyridyl]-5H-pyrrolo[3,2-d]pyrimidin-7-yl]-[4-[1-isopropyl-4-(trifluoromethyl)imidazol-2-yl]phenyl]methanol] | – | 100 to 10000 nM | – | – | 250 to 10000 nM | ≥ 10000 nM |
| Cn1cc(C(F)(F)F)nc1-c1ccc(C(=O)c2c[nH]c3cnc(-c4cccnc4C4CC4)cc23)cc1 [Compound 53] | – | ≥ 10000 nM | – | – | ≥ 10000 nM | ≥ 10000 nM |
| CC(C)Oc1ncccc1-c1ncc2[nH]cc(Cc3ccc(-c4nc(C(F)(F)F)cn4C)cc3)c2n1 [Compound 55, 2-isopropoxy-3-[7-([4-[1-methyl-4-(trifluoromethyl)imidazol-2-yl]phenyl]methyl)-5H-pyrrolo[3,2-d]pyrimidin-2-yl]pyridine] | – | < 30 nM | – | – | < 100 nM | ≥ 10000 nM |
| Cn1cc(C(F)(F)F)nc1-c1ccc(Cc2c[nH]c3cnc(-c4cccnc4O)nc23)cc1 [Compound 56, 3-[7-([4-[1-methyl-4-(trifluoromethyl)imidazol-2-yl]phenyl]methyl)-5H-pyrrolo[3,2-d]pyrimidin-2-yl]pyridin-2-ol] | – | ≥ 10000 nM | – | – | ≥ 10000 nM | ≥ 10000 nM |
| CNc1ncccc1-c1ncc2[nH]cc(Cc3ccc(-c4nc(C(F)(F)F)cn4C)cc3)c2n1 [Compound 58, N-methyl-3-[7-[[4-[1-methyl-4-(trifluoromethyl)imidazol-2-yl]phenyl]methyl]-5H-pyrrolo[3,2-d]pyrimidin-2-yl]pyridin-2-amine] | – | 100 to 10000 nM | – | – | 250 to 10000 nM | 250 to 10000 nM |
| COc1ncnc(C2CC2)c1-c1ncc2[nH]cc(C(O)c3ccc(-c4nc(C(F)(F)F)cn4C(C)C)cc3)c2n1 (centres unmarked) [Compound 59, [2-(4-cyclopropyl-6-methoxy-pyrimidin-5-yl)-5H-pyrrolo[3,2-d]pyrimidin-7-yl]-[4-[1-isopropyl-4-(trifluoromethyl)imidazol-2-yl]phenyl]methanol] | – | 100 to 10000 nM | – | – | 250 to 10000 nM | 250 to 10000 nM |
| Cn1cc(C(F)(F)F)nc1-c1ccc(Cc2c[nH]c3cnc(-c4ccccc4CO)nc23)cc1 [Compound 72] | – | 100 to 10000 nM | – | – | 250 to 10000 nM | ≥ 10000 nM |
| CC(C)c1ccccc1-c1ncc2c(n1)c(C(O)c1ccc(-c3nc(C(F)(F)F)cn3C)cc1)cn2Cc1ccccc1 (centres unmarked) [Compound 80] | – | 100 to 10000 nM | – | – | 250 to 10000 nM | ≥ 10000 nM |
| CC(C)c1ccccc1-c1ncc2[nH]cc(C(=O)c3ccc(-c4nc(C(F)(F)F)cn4C)cc3)c2n1 [Compound 86, [2-(2-isopropylphenyl)-5H-pyrrolo[3,2-d]pyrimidin-7-yl]-[4-[1-methyl-4-(trifluoromethyl)imidazol-2-yl]phenyl]methanone] | – | ≥ 10000 nM | – | – | 250 to 10000 nM | 250 to 10000 nM |
| Cn1cc(C(F)(F)F)nc1-c1ccc(C(O)c2c[nH]c3cnc(-c4c(C(F)(F)F)cnn4C)nc23)cc1 (centres unmarked) [Compound 108, [4-[1-methyl-4-(trifluoromethyl)imidazol-2-yl]phenyl]-[2-[2-methyl-4-(trifluoromethyl)pyrazol-3-yl]-5H-pyrrolo[3,2-d]pyrimidin-7-yl]methanol] | – | 100 to 10000 nM | – | – | 250 to 10000 nM | ≥ 10000 nM |
| COc1ncnc(C2CC2)c1-c1ncc2[nH]cc(C(C)c3ccc(-c4nc(C(F)(F)F)cn4C)cc3)c2n1 (centres unmarked) [Compound 128] | – | < 30 nM | – | – | < 100 nM | ≥ 10000 nM |
| COc1ncnc(C2CC2)c1-c1ncc2[nH]cc(C(c3ccc(-c4nc(C(F)(F)F)cn4C)cc3)C(C)C)c2n1 (centres unmarked) [Compound 145] | – | 30 to 100 nM | – | – | 100 to 250 nM | 250 to 10000 nM |
| Cn1cc(C(F)(F)F)nc1-c1ccc(Cc2c[nH]c3cnc(-c4c(OC5CC5)ncnc4C4CC4)nc23)cc1 [Compound 155] | – | < 30 nM | – | – | < 100 nM | ≥ 10000 nM |
| Cn1cc(C(F)(F)F)nc1-c1ccc(Cc2n[nH]c3cnc(-c4c(Cl)ccnc4C4CC4)nc23)cc1 [Compound 156, 5-(4-chloro-2-cyclopropylpyridin-3-yl)-3-(4-(1-methyl-4-(trifluoromethyl)-1H-imidazol-2-yl)benzyl)-1H-pyrazolo[4,3-d]pyrimidine] | – | < 30 nM | – | – | < 100 nM | ≥ 10000 nM |
| Cn1cc(C(F)(F)F)nc1-c1ccc(Cc2c[nH]c3cnc(-c4c(C(F)(F)F)cnn4C)nc23)cc1 [Compound 179, 7-[[4-[1-methyl-4-(trifluoromethyl)imidazol-2-yl]phenyl]methyl]-2-[2-methyl-4-(trifluoromethyl)pyrazol-3-yl]-5H-pyrrolo[3,2-d]pyrimidine] | – | – | – | < 100 nM | < 100 nM | 250 to 10000 nM |
| COc1ncnc(C2CC2)c1-c1nc(Cl)c2[nH]cc(Cc3ccc(-c4nc(C(F)(F)F)cn4C)cc3)c2n1 [Compound 187, 4-chloro-2-(4-cyclopropyl-6-methoxy-pyrimidin-5-yl)-7-[[4-[1-methyl-4-(trifluoromethyl)imidazol-2-yl]phenyl]methyl]-5H-pyrrolo[3,2-d]pyrimidine] | – | < 30 nM | – | – | < 100 nM | 250 to 10000 nM |

Results, then the compound that gave them:

| IC50 ([1]; viability) | IC50 [2] | IC50 [3] | IC50 ([3]; Homo sapiens) | IC50 [1, 5] | IC50 [4] | Structure (SMILES) |
| --- | --- | --- | --- | --- | --- | --- |
| 250 to 10000 nM | 100 to 10000 nM | – | 100 to 250 nM | – | – | COc1ncnc(C2CC2)c1-c1ncc2[nH]cc([C@@](C)(O)c3ccc(-c4nc(C(F)(F)F)cn4C)cc3)c2n1 (single isomer, unassigned) [Compound 76] |
| – | < 30 nM | – | < 100 nM | – | – | COc1ncnc(C2CC2)c1-c1ncc2c(n1)c(Cc1ccc(-c3nc(C(F)(F)F)cn3C3CC3)cc1)cn2C [Compound 25] |
| – | – | – | < 100 nM | < 100 nM | ≥ 10000 nM | COc1ncnc(C2CC2)c1-c1ncc2c(n1)c(Cc1ccc(-c3nc(C(F)(F)F)cn3C)cc1)nn2C [Compound 26, 5-(4-cyclopropyl-6-methoxy-pyrimidin-5-yl)-1-methyl-3-[[4-[1-methyl-4-(trifluoromethyl)imidazol-2-yl]phenyl]methyl]pyrazolo[4,3-d]pyrimidine] |
| – | < 30 nM | – | < 100 nM | < 100 nM | – | COc1ncnc(C2CC2)c1-c1ncc2[nH]cc(Cc3ccc(-c4nc(C(F)(F)F)cn4C(C)C)cc3)c2n1 [Compound 54, 2-(4-cyclopropyl-6-methoxy-pyrimidin-5-yl)-7-[[4-[1-isopropyl-4-(trifluoromethyl)imidazol-2-yl]phenyl]methyl]-5H-pyrrolo[3,2-d]pyrimidine] |
| – | 30 to 100 nM | – | – | 250 to 10000 nM | 250 to 10000 nM | CN(Cc1ccccc1-c1ncc2[nH]cc(Cc3ccc(-c4nc(C(F)(F)F)cn4C)cc3)c2n1)CC(F)(F)F [Compound 61] |
| – | 100 to 10000 nM | – | – | 250 to 10000 nM | 250 to 10000 nM | CC(C)c1ccccc1-c1ncc2[nH]cc(Nc3ccc(-c4nc(C(F)(F)F)cn4C)cc3)c2n1 [Compound 62, 2-(2-isopropylphenyl)-N-[4-[1-methyl-4-(trifluoromethyl)imidazol-2-yl]phenyl]-5H-pyrrolo[3,2-d]pyrimidin-7-amine] |
| – | ≥ 10000 nM | – | – | ≥ 10000 nM | ≥ 10000 nM | CCn1c(C(F)(F)F)cnc1-c1ccc(C(O)c2c[nH]c3cnc(-c4c(OC)ncnc4C4CC4)nc23)cc1 (centres unmarked) [Compound 75] |
| – | 100 to 10000 nM | – | – | 250 to 10000 nM | ≥ 10000 nM | Cn1cc(C(F)(F)F)nc1-c1ccc(Cc2c[nH]c3cnc(-c4cccnc4N4CCC45COC5)nc23)cc1 [Compound 77] |
| – | 100 to 10000 nM | – | – | 250 to 10000 nM | ≥ 10000 nM | COCCc1[nH]c2cnc(-c3c(OC)ncnc3C3CC3)nc2c1C(O)c1ccc(-c2nc(C(F)(F)F)cn2C)cc1 (centres unmarked) [Compound 109, [2-(4-cyclopropyl-6-methoxy-pyrimidin-5-yl)-6-(2-methoxyethyl)-5H-pyrrolo[3,2-d]pyrimidin-7-yl]-[4-[1-methyl-4-(trifluoromethyl)imidazol-2-yl]phenyl]methanol] |
| – | < 30 nM | – | – | < 100 nM | ≥ 10000 nM | Cn1cc(C(F)(F)F)nc1-c1ccc(Cc2c[nH]c3cnc(-c4c(OCF)ncnc4C4CC4)nc23)cc1 [Compound 173, 2-[4-cyclopropyl-6-(fluoromethoxy)pyrimidin-5-yl]-7-[[4-[1-methyl-4-(trifluoromethyl)imidazol-2-yl]phenyl]methyl]-5H-pyrrolo[3,2-d]pyrimidine] |
